According to patent publication US20250221965A1, “THERAPEUTIC AGENT FOR RESPIRATORY DISEASE” (THE JIKEI UNIVERSITY, priority 2022, published 2025):

Key:
[1] = system: p21 expression in human-derived cultured airway epithelial cells (HBEC) with cigarette smoke extract; assay: Action on smoking stimulation-induced cell senescence (p21 expression); format: cell-based; conditions: 24 hours
Method: The effect of pemafibrate was examined with reference to a procedure described in a literature (Saito N, et al.: J Immunol (2019), 202: 1428). That is, human-derived cultured airway epithelial cells (HBEC) were cultured in a culture medium supplemented with 10 nM to 100 nM of pemafibrate together with 1% cigarette smoke extract (CSE) for 24 hours, and were compared to a control (0 nM).

[2] = system: TFEB expression in cultured human airway epithelial cells (BEAS2B); assay: Induction of TFEB expression in human airway epithelial cell; format: cell-based; conditions: 24 hours
Method: The effect of pemafibrate was examined with reference to a procedure described in a literature ([…], et al.: Autophagy (2019), 15(3): 510). That is, cultured human airway epithelial cells (BEAS2B) were cultured in a culture medium supplemented with 10 nM or 100 nM of pemafibrate for 24 hours, and were compared to a control (0 nM).

[3] = system: cigarette smoke-exposed COPD model; assay: Cigarette smoke-exposed COPD model; format: in vivo, C57BL/6J mice
Source text: The effect of pemafibrate was examined with reference to a procedure described in a literature ([…], et al.: Autophagy (2019), 15(3): 510)). That is, C57BL/6J mice were exposed to cigarette smoke with an exposure and inhalation system for small animals five times a week for 6 months. The mice were classified into a total of 4 groups as follows: the mice were classified into a normal diet group (Ctrl) and a 0.0003 w/w % pemafibrate mixed feed group (Pema), and the groups were each further classified into a room air group (RA) and a cigarette smoke exposure group (CS). First, a lung after the completion of the administration of pemafibrate was removed from the room air group (RA), and was evaluated for the expression of TFEB by being homogenized. […] Next, a bronchoalveolar lavage fluid was collected and evaluated for its cells. […] In addition, an alveolar diameter was measured and the degree of emphysema was evaluated.

For CC[C@@H](Oc1cccc(CN(CCCOc2ccc(OC)cc2)c2nc3ccccc3o2)c1)C(=O)O [pemafibrate, (R)-2-[3-[[N-(benzoxazol-2-yl)-N-3-(4-methoxyphenoxy)propyl]aminomethyl]phenoxy]butyric acid], which “expression of p21 increased by CSE stimulation” value ([1]; 10 nM to 100 nM pemafibrate with 1% CSE, FIG. 2) is on record?
The value was “suppressed by pemafibrate in a dose-dependent manner”.

What about the “suppressing action on cell senescence” value ([1]; 1% CSE) of the same compound?
The value was “had a suppressing action on cell senescence”.

What about the “pemafibrate concentration giving significant difference in ratio of p21 to ACTB expression vs control” value ([1]; 1% CSE, p<0.05) of the same compound?
Its value is at least 20 nM.

What about the “expression of TFEB” value ([2]; 10 nM or 100 nM pemafibrate, vs control (0 nM), FIG. 1) of the same compound?
The value was “increased in a manner dependent on the dose”.

And the “ratio of the expression amount of TFEB to the expression amount of ACTB” value ([2]; 10 nM or 100 nM, vs control, p<0.05)?
The value was “a significant difference was observed as compared to the control”.

What about the “destruction of lung structure (alveolar diameter, degree of emphysema)” value ([3]; cigarette smoke exposure (CS) 6 months, 0.0003 w/w % mixed feed, FIG. 5 and 6) of the same compound?
Its value is “the destruction of a lung structure due to the cigarette smoke exposure (CS) was suppressed”.

And the “cell senescence due to cigarette smoke exposure” value ([3]; cigarette smoke exposure (CS) 6 months, 0.0003 w/w % mixed feed, FIG. 7)?
The value was “the cell senescence due to the cigarette smoke exposure (CS) was suppressed”.

And the “expression of TFEB in lung homogenate” value ([3]; room air group (RA), 0.0003 w/w % pemafibrate mixed feed, 6 months, FIG. 3)?
The value was “an increase in expression of TFEB was observed”.
